# Experimental data from article PMC2435557, “Developing and applying a gene functional association network for anti-angiogenic kinase inhibitor activity assessment in an angiogenesis co-culture model” (BMC Genomics, 2008).
# Entries after “also recorded” stand apart in the source; their conditions may differ.
# How the values were obtained:
# [1] = tested on: HUVEC cord formation in co-culture with NHDF; test: HUVEC/NHDF cord formation co-culture assay (in vitro angiogenesis, high content imaging); type: cell-based, human; conditions: for EC50: Homo sapiens, cord area normalized to control group, mean of two to four independent experiments, sigmoidal dose-response fit, read-out: observed EC50 of cord formation inhibition (cord area)
# Experimental: In vitro HUVEC cord formation co-culture was performed using the AngioKit commercially available from TCScellworks (Buckingham, UK) adapted to a 24-well format. To test HUVEC and NHDF passage dependence effects, the co-culture was done in house adapted to a 96-well format. Briefly, HUVEC cells were co-cultured onto human dermal fibroblast feeder layers in Optimised medium (TCScellworks, Buckingham, UK) for a total of about 12 days. Treatment started the day when the plates were received; usually three to four days after initial plating. Medium with or without growth factors or compounds was replenished every 2 to 3 days. Cells were fixed with 70% cold ethanol at the end of the culture and processed for anti-CD31/Alexa 488 immunofluorescence. To visualize feeder layer fibroblasts, some cultures were stained using a polyclonal antibody against Vimentin (Abcam, Cambridge, Massachusetts) along with an Alexa 568 conjugated secondary antibody to examine the feeder cell integrity. Nuclear staining was performed using Hoechst staining (Invitrogen Molecular Probe, Carlsbad, California).
# Immunofluorescence stained co-culture plates were scanned using ArrayScan VTI (Cellomics, Pittsburgh, Pennsylvania) and the multi-parameter tube formation Bioapplication was used for quantification. Morphological measurements included cord length, width, area, percent connected cord, branching node and segment count, nuclei per cord, angiogenic index (expressed as the percentage of area covered by connected tube), etc. General cytotoxicity was monitored by examination of the nuclear staining of the feed layers.
# [2] = design: method as in PMID 15919970; conditions: cited from earlier work
molecule,measurement,setting,value
O=C(Cc1ccc(-c2cnc3cc(-c4ccncc4)ccn23)cc1)Nc1cccc(C(F)(F)F)c1 [LY2401401],EC50,[1],9.2 nM
Clc1ccc(Nc2nnc(Cc3ccncc3)c3ccccc23)cc1 [PTK787],EC50,[1],140 nM
same,outcome in clinical trials,[2],failed to achieve statistical significance
CCN(CC)CCNC(=O)c1c(C)[nH]c(/C=C2\C(=O)Nc3ccc(F)cc32)c1C [Sunitinib],effect on cord mass in length and area,[1]; 30 nM,significantly inhibited
same,"number of connected cords, branching nodes, and segment measurements",[1]; 30 nM,all significantly reduced
same,number of nuclei per tube,[1]; 30 nM,significantly reduced
same,effect on angiogenesis / cord formation,"[1]; 30 nM compound, compared to medium control",significantly inhibited angiogenesis; also recorded: drastically inhibited cord formation
same,EC50,[1],39 nM
VEGF,effect on angiogenesis / cord formation,[1]; 20 ng/ml VEGF added to culture,significantly increased angiogenesis; also recorded: greatly enhanced
